Measurements reported in patent US9169254B2, “Spiroimidazolone derivative” (Chugai Seiyaku Kabushiki Kaisha, priority 2009, dated 2015).
Structures can show the parent of a compound that is named as a salt.

Each compound was assayed against T1, human PTH1 receptor (Homo sapiens, UniProt Q03431) (assay: In vitro cAMP signal activity in HKRK-B7 cells (LLC-PK1 cells overexpressing the human PTH1 receptor)). Settings: 0.1 µM.
T1 sequence (Q03431 27-593): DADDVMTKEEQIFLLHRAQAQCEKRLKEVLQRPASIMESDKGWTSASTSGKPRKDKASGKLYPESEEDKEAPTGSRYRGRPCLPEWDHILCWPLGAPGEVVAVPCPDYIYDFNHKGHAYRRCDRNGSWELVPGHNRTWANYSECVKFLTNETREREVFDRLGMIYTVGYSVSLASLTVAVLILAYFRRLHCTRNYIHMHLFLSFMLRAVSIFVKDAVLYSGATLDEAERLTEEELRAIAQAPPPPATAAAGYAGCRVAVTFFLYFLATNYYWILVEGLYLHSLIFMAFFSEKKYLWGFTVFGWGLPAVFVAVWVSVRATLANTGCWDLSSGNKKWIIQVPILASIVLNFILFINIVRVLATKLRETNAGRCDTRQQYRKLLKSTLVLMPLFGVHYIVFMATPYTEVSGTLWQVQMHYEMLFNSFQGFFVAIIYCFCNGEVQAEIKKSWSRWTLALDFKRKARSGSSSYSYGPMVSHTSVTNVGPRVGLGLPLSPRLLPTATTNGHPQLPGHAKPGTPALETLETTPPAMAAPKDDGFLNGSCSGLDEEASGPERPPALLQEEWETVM
Format: cell-based
For `Cc1cc(N(C)C(N)=O)cc(C)c1/C=C/[S@TB3](=O)(=O)N1CCC2(CC1)N=C(c1cccc(C(F)(F)C(F)(F)C(F)(F)C(F)(F)F)c1)NC2=O` [Compound 1112, 1-(3,5-dimethyl-4-{(E)-2-[2-(3-nonafluorobutyl-phenyl)-4-oxo-1,3,8-triaza-spiro[4.5]dec-1-ene-8-sulfonyl]-vinyl}-phenyl)-1-methyl-urea], the “cAMP production activity (%)” value was 76%.

Same assay, conditions: HKRK-B7 cells; compound at 1×10^−3 M; cAMP produced as percentage of that produced by hPTH(1-34) at 100 nM
For `Cc1cc(S(=O)(=O)N2CCC3(CC2)N=C(C2CCCCC2)NC3=O)c(C)s1` [Compound 64, 2-cyclohexyl-8-(2,5-dimethyl-thiophene-3-sulfonyl)-1,3,8-triaza-spiro[4.5]dec-1-en-4-one], the “cAMP production activity (%)” value was 45%.
`O=C1NC(C2CCC(CCC(F)(F)F)CC2)=NC12CCN(S(=O)(=O)CCc1cccc3c1ccn3CCOC[C@@H](O)CO)CC2` (stereo partly drawn) [Compound 822, 8-(2-{1-[2-((S)-2,3-dihydroxy-propoxy)-ethyl]-1H-indol-4-yl}-ethanesulfonyl)-2-[4-(3,3,3-trifluoro-propyl)-cyclohexyl]-1,3,8-triaza-spiro[4.5]dec-1-en-4-one] was tested, and the “cAMP production activity (%)” value was 99%.
`Cc1cc(C(=O)N2CCCC2)ccc1CCS(=O)(=O)N1CCC2(CC1)N=C(c1cccc(C(F)(F)F)c1)NC2=O` [Compound 288, 8-{2-[2-methyl-4-(pyrrolidine-1-carbonyl)-phenyl]-ethanesulfonyl}-2-(3-trifluoromethyl-phenyl)-1,3,8-triaza-spiro[4.5]dec-1-en-4-one] was tested, and the “cAMP production activity (%)” value was 82%.
With `Cc1cc(S(=O)(=O)Nc2ccncc2)ccc1/C=C/S(=O)(=O)N1CCC2(CC1)N=C(c1cccc(OC(F)(F)F)c1)NC2=O` [Compound 530, 3-methyl-4-{(E)-2-[4-oxo-2-(3-trifluoromethoxy-phenyl)-1,3,8-triaza-spiro[4.5]dec-1-ene-8-sulfonyl]-vinyl}-N-pyridin-4-yl-benzenesulfonamide] the “cAMP production activity (%)” value was 18%.
For `Cc1cc(CN)cc(C)c1/C=C/S(=O)(=O)N1CCC2(CC1)N=C(C1CCC(CCC(F)(F)F)CC1)NC2=O` (stereo not drawn) [Compound 1290, 8-[(E)-2-(4-aminomethyl-2,6-dimethyl-phenyl)-ethenesulfonyl]-2-[4-(3,3,3-trifluoro-propyl)-cyclohexyl]-1,3,8-triaza-spiro[4.5]dec-1-en-4-one], the “cAMP production activity (%)” value was 6.3%.
In the case of `Cc1cc(C(=O)N(C)C)ccc1CCS(=O)(=O)N1CCC2(CC1)N=C(c1ccc(Cl)cc1C)NC2=O` [Compound 128, 4-{2-[2-(4-chloro-2-methyl-phenyl)-4-oxo-1,3,8-triaza-spiro[4.5]dec-1-ene-8-sulfonyl]-ethyl}-3,N,N-trimethyl-benzamide], the “cAMP production activity (%)” value is reported as 57%.
In the case of `O=C1NC(c2cccc(C(F)(F)F)c2)=NC12CCN(S(=O)(=O)c1cccc(Cl)c1)CC2` [Compound 31, 8-(3-chloro-benzenesulfonyl)-2-(3-trifluoromethyl-phenyl)-1,3,8-triaza-spiro[4.5]dec-1-en-4-one], the “cAMP production activity (%)” value is reported as 41%.
With `Cc1cc(C(=O)N2CCC(C)(O)CC2)cc(C)c1/C=C/S(=O)(=O)N1CCC2(CC1)N=C(c1cc(OCC(F)(F)C(F)F)cc(C(F)(F)F)c1)NC2=O` [Compound 1226, 8-{(E)-2-[4-(4-hydroxy-4-methyl-piperidine-1-carbonyl)-2,6-dimethyl-phenyl]-ethenesulfonyl}-2-[3-(2,2,3,3-tetrafluoro-propoxy)-5-trifluoromethyl-phenyl]-1,3,8-triaza-spiro[4.5]dec-1-en-4-one] the “cAMP production activity (%)” value was 51%.
For `Cc1cc(C(=O)N2CCN(C(C)C)CC2)ccc1/C=C/S(=O)(=O)N1CCC2(CC1)N=C(c1cccc(OC(F)(F)F)c1)NC2=O` [Compound 598, 8-{(E)-2-[4-(4-isopropyl-piperazine-1-carbonyl)-2-methyl-phenyl]-ethenesulfonyl}-2-(3-trifluoromethoxy-phenyl)-1,3,8-triaza-spiro[4.5]dec-1-en-4-one], the “cAMP production activity (%)” value was 74%.
For `CCCCC1CCC(C2=NC3(CCN(S(=O)(=O)/C=C/c4c(C)cc(C(=O)N5CCC(OCCOCCO)CC5)cc4C)CC3)C(=O)N2)CC1` (stereo not drawn) [Compound 1009, 2-(4-butyl-cyclohexyl)-8-[(E)-2-(4-{4-[2-(2-hydroxy-ethoxy)-ethoxy]-piperidine-1-carbonyl}-2,6-dimethyl-phenyl)-ethenesulfonyl]-1,3,8-triaza-spiro[4.5]dec-1-en-4-one], the “cAMP production activity (%)” value was 70%.
`Cc1cc(CN(CCCN(C)C)C(=O)OC(C)(C)C)ccc1/C=C/S(=O)(=O)N1CCC2(CC1)N=C(C1CCCCC1)NC2=O` [Compound 569, {4-[(E)-2-(2-cyclohexyl-4-oxo-1,3,8-triaza-spiro[4.5]dec-1-ene-8-sulfonyl)-vinyl]-3-methyl-benzyl}-(3-dimethylamino-propyl)-carbamic acid tert-butyl ester] was tested, and the “cAMP production activity (%)” value was 4.2%.
With `Cc1cc(N2C(=O)CN(C)C2=O)cc(C)c1/C=C/S(=O)(=O)N1CCC2(CC1)N=C(C1CCC(CCC(F)(F)F)CC1)NC2=O` (stereo not drawn) [Compound 548, 3-[3,5-dimethyl-4-((E)-2-{4-oxo-2-[4-(3,3,3-trifluoro-propyl)-cyclohexyl]-1,3,8-triaza-spiro[4.5]dec-1-ene-8-sulfonyl}-vinyl)-phenyl]-1-methyl-imidazolidine-2,4-dione] the “cAMP production activity (%)” value was 88%.
For `Cc1cc(C(=O)N2CC(F)C2)ccc1CCS(=O)(=O)N1CCC2(CC1)N=C(c1cccc(C(F)(F)F)c1)NC2=O` [Compound 379, 8-{2-[4-(3-fluoro-azetidine-1-carbonyl)-2-methyl-phenyl]-ethanesulfonyl}-2-(3-trifluoromethyl-phenyl)-1,3,8-triaza-spiro[4.5]dec-1-en-4-one], the “cAMP production activity (%)” value was 59%.
In the case of `[2H]C([2H])([2H])C1([2H])CCC(C2=NC3(CCN(S(=O)(=O)CCc4c(C)cc(N(C)C(N)=O)cc4C)CC3)C(=O)N2)CC1` (stereo not drawn) [Compound 1364, 1-(3,5-dimethyl-4-{2-[2-(4-[1,1,1-^2H3]-methyl-[4-^2H1]cyclohexyl)-4-oxo-1,3,8-triaza-spiro[4.5]dec-1-ene-8-sulfonyl]-ethyl}-phenyl)-1-methyl-urea], the “cAMP production activity (%)” value is reported as 84%.
In the case of `CNc1cc(C)c(/C=C/[S@TB3](=O)(=O)N2CCC3(CC2)N=C(CCCCCCCCCO)NC3=O)c(C)c1` [Compound 1107, 8-[(E)-2-(2,6-dimethyl-4-methylamino-phenyl)-ethenesulfonyl]-2-(9-hydroxy-nonyl)-1,3,8-triaza-spiro[4.5]dec-1-en-4-one], the “cAMP production activity (%)” value is reported as 24%.
For `Cc1cc(OC2CCNCC2)ccc1/C=C/S(=O)(=O)N1CCC2(CC1)N=C(c1cccc(OC(F)(F)F)c1)NC2=O` [Compound 1283, 8-{(E)-2-[2-Methyl-4-(piperidin-4-yloxy)-phenyl]-ethenesulfonyl}-2-(3-trifluoromethoxy-phenyl)-1,3,8-triaza-spiro[4.5]dec-1-en-4-one trifluoroacetate], the “cAMP production activity (%)” value was 18%.
In the case of `Cc1cc(C(=O)N2CCN(c3ncccn3)CC2)ccc1CCS(=O)(=O)N1CCC2(CC1)N=C(c1cccc(C(F)(F)F)c1)NC2=O` [Compound 359, 8-{2-[2-methyl-4-(4-pyrimidin-2-yl-piperazine-1-carbonyl)-phenyl]-ethanesulfonyl}-2-(3-trifluoromethyl-phenyl)-1,3,8-triaza-spiro[4.5]dec-1-en-4-one], the “cAMP production activity (%)” value is reported as 65%.
